The structures appear in SMILES notation. Like-named read-outs stand apart in the source and are kept apart here.

This is an account of results in article PMC7200709, “The mechanism of loop C-neonicotinoid interactions at insect nicotinic acetylcholine receptor α1 subunit predicts resistance emergence in pests” (Scientific Reports, 2020).

In experiment [1] the target is T1, (Dα1)3(β2)2 nAChR (Drosophila melanogaster, UniProt P09478+P09484).
T1 construct: gene nAChRalpha1; fruitfly Dα1 and chicken β2 cDNAs in pcDNA3.1(+), cRNA mixed 5:1 (Dα1:β2), Xenopus laevis oocytes; hybrid pentamer with Dα1/Dα1 and Dα1/β2 interfaces
The experiment can be described thus: two-electrode voltage clamp, Xenopus oocytes, agonist concentration-response. The experiment is classed as cell-based. From the text:
two-electrode voltage clamp, Xenopus oocytes, agonist concentration-response on (Dα1)3(β2)2 nAChR
A general note: Two-electrode voltage clamp is typically applied to oocytes expressing channels or transporters.

The target in experiment [2] is T2, (Dα1)2(β2)3 nAChR (Drosophila melanogaster, UniProt P09478+P09484).
T2 construct: gene nAChRalpha1; fruitfly Dα1 and chicken β2 cDNAs in pcDNA3.1(+), cRNA mixed 1:5 (Dα1:β2), Xenopus laevis oocytes; hybrid pentamer with Dα1/β2 interfaces
The description is as above. It is filed as cell-based. From the text:
two-electrode voltage clamp, Xenopus oocytes, agonist concentration-response on (Dα1)2(β2)3 nAChR

T1 sequence (P09478 22-567): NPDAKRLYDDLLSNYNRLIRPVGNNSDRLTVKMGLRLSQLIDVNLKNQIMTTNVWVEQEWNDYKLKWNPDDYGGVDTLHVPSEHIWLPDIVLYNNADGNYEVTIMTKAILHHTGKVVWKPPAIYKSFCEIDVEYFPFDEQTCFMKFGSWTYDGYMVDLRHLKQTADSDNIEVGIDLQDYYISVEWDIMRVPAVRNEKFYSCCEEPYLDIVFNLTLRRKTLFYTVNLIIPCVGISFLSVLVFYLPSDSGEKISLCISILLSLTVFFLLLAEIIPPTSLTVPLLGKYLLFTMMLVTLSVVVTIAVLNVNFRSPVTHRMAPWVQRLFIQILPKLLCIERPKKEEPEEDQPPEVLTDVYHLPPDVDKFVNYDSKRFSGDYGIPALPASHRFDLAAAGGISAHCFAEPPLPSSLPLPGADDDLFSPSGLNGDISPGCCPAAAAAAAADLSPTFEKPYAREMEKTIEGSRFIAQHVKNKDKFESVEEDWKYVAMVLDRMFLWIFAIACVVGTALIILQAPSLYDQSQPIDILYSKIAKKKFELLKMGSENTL
T1 sequence (P09484 19-491): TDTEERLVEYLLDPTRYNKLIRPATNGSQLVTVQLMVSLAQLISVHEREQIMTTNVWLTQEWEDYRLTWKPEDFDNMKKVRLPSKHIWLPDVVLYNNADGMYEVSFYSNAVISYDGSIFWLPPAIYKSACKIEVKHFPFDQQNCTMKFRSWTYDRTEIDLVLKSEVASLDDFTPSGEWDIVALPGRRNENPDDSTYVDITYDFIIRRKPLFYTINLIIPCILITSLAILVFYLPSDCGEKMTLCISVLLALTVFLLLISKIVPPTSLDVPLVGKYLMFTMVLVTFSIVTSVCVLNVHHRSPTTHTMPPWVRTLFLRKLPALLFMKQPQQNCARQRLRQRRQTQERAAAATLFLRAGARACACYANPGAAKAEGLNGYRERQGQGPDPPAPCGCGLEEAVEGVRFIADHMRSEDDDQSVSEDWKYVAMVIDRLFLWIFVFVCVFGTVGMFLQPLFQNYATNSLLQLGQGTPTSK
T2 sequence (P09478 22-567): as the sequence (P09478 22-567) above
T2 sequence (P09484 19-491): as the sequence (P09484 19-491) above

Consider `CC(=O)OCC[N+](C)(C)C` [ACh], for which the figures for the EC50 in experiment [1] (read-out: (Dα1)3(β2)2 / pEC50 (converted)) and in experiment [2] (read-out: (Dα1)2(β2)3 / pEC50 (converted)) were 155 nM and 162 nM, respectively.

Regarding `O=[N+]([O-])NC1=NCCN1Cc1ccc(Cl)nc1` [imidacloprid], the EC50 was 162 nM in experiment [1] (read-out: Imidacloprid / (Dα1)3(β2)2 / pEC50 (converted)) and 112 nM in experiment [2] (read-out: Imidacloprid / (Dα1)2(β2)3 / pEC50 (converted)).

On to `N#C/N=C1\SCCN1Cc1ccc(Cl)nc1` [thiacloprid], for which the results for the EC50 in experiment [1] (read-out: Thiacloprid / (Dα1)3(β2)2 / pEC50 (converted)) and in experiment [2] (read-out: Thiacloprid / (Dα1)2(β2)3 / pEC50 (converted)) were 45.7 nM and 24.5 nM, respectively.
